This note sets out measurements from patent US12391677B2, “Thyroid hormone receptor agonists” (INVENTISBIO CO., LTD., priority 2018, dated 2025).

The structures appear in SMILES notation.

The target of data set [1] is ligand binding domain of thyroid hormone receptor alpha (Homo sapiens (Human), UniProt P10827). Briefly: Thyroid hormone receptor TR-FRET binding assay (TRα LBD). The settings on record: TRα LBD 4 nM. Here is the method: (§1) TR-FRET binding assay was used to test representative compounds herein.
Sequence of ligand binding domain of thyroid hormone receptor alpha (P10827 other isoform, or with tags, fused parts or gaps del 1-162, other chains not shown): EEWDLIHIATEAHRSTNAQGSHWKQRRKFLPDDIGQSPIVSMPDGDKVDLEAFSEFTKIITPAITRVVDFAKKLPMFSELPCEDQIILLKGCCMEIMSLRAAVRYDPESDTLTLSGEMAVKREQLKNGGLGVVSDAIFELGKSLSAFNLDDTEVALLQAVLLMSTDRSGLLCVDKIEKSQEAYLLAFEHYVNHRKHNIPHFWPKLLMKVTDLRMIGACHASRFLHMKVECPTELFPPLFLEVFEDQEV
(§2) The ligand binding domain of thyroid hormone receptor alpha and the ligand binding domain of thyroid hormone receptor beta with GST tag were purchased from Invitrogen. Biotin-SRC2-2 coactivator peptide was purchased from Sangon Biotech, Europium anti-GST and Streptavidin-D2 was from Cisbio.
(§3) Five microliters of 4× compound serial dilution was added in the 384-well plate, white, low volume, round-bottom assay plate. […] Centrifuge the assay plates at 1000 g for 1 min and incubate 1 hr at RT, protected from light. […] Calculate EC50 by fitting % Activity values and log of compound concentrations to nonlinear regression (dose response—variable slope) with Graphpad 5.0.

Data set [2] in a line: Human hepatocyte clearance study. Format: in vitro ADME. The conditions noted are these: human, hepatocytes; for Human Hepatocyte Remaining Percentage @ 120 min: 2 h. As to the method:
The in vitro human hepatocyte clearance of compounds described here was studied using pooled human hepatocytes purchased from BioreclamationIVT (Westbury, NY, Cat # X008001, Lot # TQJ). The assay was conducted according to manufacturer's instruction. Briefly, 10 mM stock solutions of test compounds and positive control (Verapamil) were prepared in 100% DMSO. […] Incubation media is made of Williams E medium supplemented with 1×GlutaMax. Both thawing medium and incubation medium (serum-free) were placed in a 37° C. water bath for at least 15 minutes prior to use. […] Verapamil was use as a positive control in the assay. Vials of cryopreserved hepatocytes were removed from storage and thawed in a 37° C. water bath with gentle shaking. Contents of the vial were poured into the 50 mL thawing medium conical tube. Vials were centrifuged at 100 g for 10 minutes at room temperature. […] Hepatocyte viability and density were counted using a Trypan Blue exclusion, and then cells were diluted with serum-free incubation medium to a working cell density of 0.5×10^6 viable cells/mL. Then, a portion of the hepatocytes at 0.5×10^6 viable cells/mL was boiled for 5 minutes prior to adding to the plate as negative control to eliminate the enzymatic activity so that little or no substrate turnover should be observed. The boiled hepatocytes were used to prepare negative samples. Aliquots of 198 μL hepatocytes were dispensed into each well of a 96-well non-coated plate. The plate was placed in the incubator on an orbital shaker at 500 rpm for approximately 10 minutes. […] This assay was performed in duplicate. The plate was incubated in the incubator on an orbital shaker at 500 rpm for the designated time points. Twenty-five microliter of contents were transferred and mixed with 6 volumes (150 μL) of cold acetonitrile with IS (200 nM imipramine, 200 nM labetalol and 200 nM diclofenac) to terminate the reaction at time points of 0, 15, 30, 60, 90 and 120 minutes. […] For data analysis, all calculations were carried out using Microsoft Excel. Peak areas were determined from extracted ion chromatograms. The in vitro half-life (t1/2) of parent compound was determined by regression analysis of the percent parent disappearance vs. time curve. […] Conversion of the in vitro t1/2 (in minutes) into the scale-up unbound intrinsic clearance (scaled-up unbound CLint, in mL/min/kg) was done using the following equation (mean of duplicate determinations): Scaled-up unbound CLint=kV/N×scaling factor, where V=incubation volume (0.5 mL); N=number of hepatocytes per well (0.25×10^6 cells).

In data set [3] the target is ligand binding domain of thyroid hormone receptor beta (Homo sapiens (Human), UniProt P10828). Briefly: Thyroid hormone receptor TR-FRET binding assay (TRβ LBD). The conditions noted are these: TRβ LBD 2 nM. As to the method:
as §1, §2, §3

The target in data set [4] is TRβ-GAL4 binding domain chimeric receptors (Homo sapiens (Human), UniProt P10828). The experiment in a line: Thyroid hormone receptor cell assay (GAL4 luciferase reporter in HEK293-LUC cells). Format: cell-based. An excerpt:
TRα-LBD or TRβ-LBD, coding sequence was inserted into pBIND expression vector (Promega, E1581) to express TRβ-GAL4 binding domain chimeric receptors. This expression vector was transfected into HEK293-LUC host cells with reporter vector (pGL4.35 which carry a stably integrated GAL4 promoter driven luciferase reporter gene). Upon agonist binding to the corresponding TRa-GAL4 or TRb-GAL4 chimeric receptor, the chimeric receptor binds to the GAL4 binding sites and stimulates the reporter gene.
Seed 2.5×10^6 HEK293-LUC cells into a 60 mm dish and incubated for 16 h at 37° C. under 5% CO2 atmosphere. Mix 12 microliters of Lipo LTX reagent in 250 microliters of Opti-MEM Medium by inversion. Mix 6 ug of DNA in 250 uL of Opti-MEM medium, then add 6 uL of Lipo PLUS Reagent. Add diluted DNA to each tube of diluted Lipo LTX Reagent (1:1 ratio), and mix by Pipettor and incubate at room temperature for 10 min. The reagent mixture was added to a 60 mm dish, incubated with cells for 4-7 h at 37 degrees under 5% CO2 atmosphere.
75 nL compound was added into 384 well assay plate using ECHO550 and then add HEK293-LUC cells (transfected, 17,000 cells/well) into the plate using phenol red-free DMEM containing 5% charcoal/dextran-treated FBS and incubated for 16-20 h at […] under 5% CO2 atmosphere. Add 25 uL of Steady-Glo Luciferase Assay Reagent into each well. Shake for 5 min and then record the luminescence value on Envision 2104 plate reader.

Sequence of TRβ-GAL4 binding domain chimeric receptors (P10828 217-461, stated change not applied): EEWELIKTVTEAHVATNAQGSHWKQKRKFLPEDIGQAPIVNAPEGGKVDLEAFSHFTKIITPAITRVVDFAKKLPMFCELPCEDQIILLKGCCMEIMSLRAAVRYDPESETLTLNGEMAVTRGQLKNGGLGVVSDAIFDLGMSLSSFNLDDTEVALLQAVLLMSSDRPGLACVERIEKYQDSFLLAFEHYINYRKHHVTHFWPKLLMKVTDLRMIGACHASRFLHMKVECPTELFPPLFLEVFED
Sequence of ligand binding domain of thyroid hormone receptor beta (P10828 217-461): as the sequence (P10828 217-461, stated change not applied) above

Consider `Cc1nn(-c2cc(Cl)c(Oc3cc(C(C)C)c(=O)[nH]n3)c(Cl)c2)c(=O)[nH]c1=O` [Compound 35], for which a half-maximal response in data set [1] (EC50) required 2570 nM. For the same compound, in data set [2], the “Human In vitro Clint” value amounted to 2.21 μL/min/10^6 cells, the “Human In vitro T1/2” value worked out at 10.4 h, the “Human Scale-up Clint” value was determined as 5.63 mL/min/kg and the “Human Hepatocyte Remaining Percentage @ 120 min” value is 89%.

As for `N#Cc1nn(-c2cc(Cl)c(Oc3cc(C4CC4)c(=O)[nH]n3)c(C(F)(F)F)c2)c(=O)[nH]c1=O` [Compound 65], the figures for the EC50 in data set [1], in data set [3] and in data set [4] were 1040 nM, 150 nM and 4100 nM, respectively. The compound also yielded a CLint scaled at 1 µM in data set [2] of 4.53 mL/min/kg. The compound further yielded a half-life at 1 µM in data set [2] of 13 h. In data set [2], this compound gave a hepatocyte CLint at 1 µM of 1.78 µL/min/1e6 cells. Also, the “Human Hepatocyte Remaining Percentage @ 120 min” value in data set [2] (1 µM) amounted to 94%.
